Drawing on patent US12617777B2, “GPR84 antagonists and uses thereof” (Liminal BioSciences Limited, priority 2021, dated 2026), this text covers inhibition and IC50 for 61 compounds.

The assay concerns the target T1, human GPR84 receptor (Homo sapiens, UniProt Q9NQS5).
T1 construct: host or cells: HEK293, transient transfection
As to the kind of experiment: Gαi biosensor BRET assay in HEK293 cells (antagonism of ZQ-16). As to conditions: for inhibition at 10 µM: HEK293, single concentration 10 μM (designated F); for IC50: HEK293 cells, antagonism of 200 nmol/L ZQ-16; for inhibition at 2 µM: HEK293, single concentration 2 μM (designated A); for inhibition at 25 µM: HEK293, single concentration 25 μM (designated I). The class given is cell-based. The procedure, abridged: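 Antagonist mode: test compound 5 min at 37° C, followed by ZQ-16 agonist (200 nmol/L, 5 min, room temperature), in HEK293 cells transfected with GPR84 plus Rluc8-tagged Gαi2, GFP10-Gγ2 and Gβ1. Readout as GFP10/Rluc8 emission ratio after 5 μmol/L coelenterazine 400A, net of Rluc8-only and vehicle signal.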

Each structure is given as a SMILES string. Bounds are passed on as bounds.

T1 sequence (Q9NQS5 whole entry): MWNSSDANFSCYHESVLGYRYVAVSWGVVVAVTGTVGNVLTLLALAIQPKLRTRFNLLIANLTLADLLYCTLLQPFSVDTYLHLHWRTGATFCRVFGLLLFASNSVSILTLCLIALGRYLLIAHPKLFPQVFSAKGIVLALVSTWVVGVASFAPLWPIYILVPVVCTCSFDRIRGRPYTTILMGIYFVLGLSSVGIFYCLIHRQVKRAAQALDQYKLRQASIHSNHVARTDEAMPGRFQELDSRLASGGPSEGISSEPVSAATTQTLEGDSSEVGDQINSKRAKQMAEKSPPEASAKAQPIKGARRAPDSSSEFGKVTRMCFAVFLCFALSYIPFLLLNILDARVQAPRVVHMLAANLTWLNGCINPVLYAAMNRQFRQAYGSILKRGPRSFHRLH

As to `CC1(C)COC(Cn2cc(-c3ncc(N4CC(C)(CO)C4)cc3OC3CC3)nn2)OC1` [Compound I-703], the inhibition (as a rule, the relative decrease from the control value, in per cent) at 10 µM is over 75% and the half-maximal inhibitory concentration (IC50) – broadly, the midpoint of a concentration-inhibition curve – fell in the range of 300 to 1000 nM.

As for `Cc1cc(N2CC(C)(CO)C2)c(F)cc1-c1cn(CC2CCCCO2)nn1` (stereo not shown) [Compound I-730], the inhibition at 10 µM was over 75% and the concentration for half-maximal inhibition (IC50) lay in the range of 300 to 1000 nM.

For `COC(c1cn(Cc2ncccn2)nn1)c1cc(C#CC2CC2)ccc1C` (stereo not shown) [Compound I-674], the inhibition at 2 µM was over 75% and the half-maximal inhibitory concentration (IC50) fell in the range of 300 to 1000 nM.

Compound `CC(C)Oc1cc(N2CC(C)(CO)C2)ccc1-c1cn(CC2OCC(C)(C)CO2)nn1` [Compound I-678] showed an inhibition at 2 µM of over 75% and an IC50 of 300 to 1000 nM.

Take `Cc1ccc(C#CC2CC2)nc1-c1cn(Cc2ccccn2)nn1` [Compound I-480]: the inhibition at 2 µM is at most 25%.

The compound `CNCc1cc(C#CC2CC2)ccc1-c1cn(CC2CCCCO2)nn1` (stereo not shown) [Compound I-355] yielded an inhibition at 10 µM of 50 to 75%.

Take `Cc1ccc(C#CC2CC2)cc1Cc1cn(CC2CC(C)(C)CO2)nn1` (stereo not shown) [Compound I-643]: the inhibition at 2 µM is 50 to 75%.

Consider `Cc1cc(N2CCC(C)(C)C2)cnc1-c1cn(CC2CCCCO2)nn1` (stereo not shown) [Compound I-555], for which the inhibition at 10 µM is at most 25%.

Regarding `CC1(C)COC(Cn2cc(-c3ccc(N4CC(C)(NCc5ccccn5)C4)cc3CC(F)(F)F)nn2)OC1` [Compound I-745], the inhibition at 2 µM is over 75% and the concentration for half-maximal inhibition (IC50) lay within 300 to 1000 nM.

With `Cc1ccccc1C#Cc1cn(CC2OCC(C)(C)CO2)nn1` [Compound I-791], the inhibition at 2 µM is over 75%.

Take `CC(C)Oc1cc(C#CC2CC2)cnc1-c1cn(CC2OCC3(CCC3)O2)nn1` (stereo not shown) [Compound I-797]: the inhibition at 10 µM is over 75% and the half-inhibitory concentration (IC50) is at most 300 nM.

Compound `Cc1cc(C#CC2CC2)ccc1-c1cn(Cc2cncn2C)nn1` [Compound I-528] gave an inhibition at 10 µM of at most 25%.

In turn, `CC(C)(C)OCCn1cc(-c2ccc(C#CC3CC3)cc2)nn1` [Compound I-97] showed an inhibition at 10 µM of at most 25%.

In turn, `Cc1ccc(C#CC2CC2)nc1-c1cn(Cc2ncccn2)nn1` [Compound I-481] registered an inhibition at 2 µM of at most 25%.

In turn, `COc1cc(N2CC(C)(C)C2)ccc1-c1cn(CC2CCCCO2)nn1` (stereo not shown) [Compound I-279] displayed an inhibition at 10 µM of over 75%.

`CCc1cc(C#CCN2CCC(F)(F)CC2)cnc1-c1cn(CC2CCCCO2)nn1` (stereo not shown) [Compound I-275] had an inhibition at 10 µM of over 75%.

`Cc1cc(C#CCn2cc(-c3ccccc3)nn2)ccc1-c1cn(CC2CCCCO2)nn1` (stereo not shown) [Compound I-432, 1-(3-(3-methyl-4-(1-((tetrahydro-2H-pyran-2-yl)methyl)-1H-1,2,3-triazol-4-yl)phenyl)prop-2-ynyl)-4-phenyl-1H-1,2,3-triazole]: the inhibition at 10 µM is over 75% and the half-inhibitory concentration (IC50) was 300 to 1000 nM.

With `Cc1ccc(C#CC2CC2)cc1-n1nc(CC2CC(F)(F)CCO2)oc1=O` (stereo not shown) [Compound I-494, 3-(5-(cyclopropylethynyl)-2-methylphenyl)-5-((4,4-difluorotetrahydro-2H-pyran-2-yl)methyl)-1,3,4-oxadiazol-2(3H)-one], the inhibition at 10 µM was over 75%.

In the case of `CC1(C)COC(Cn2cc(-c3ncc(C#CC4CC4)cc3CO)nn2)OC1` [Compound I-738], the inhibition at 2 µM is at most 25%.

With `Cc1cc(N2CC(C)(C#N)C2)ccc1-c1cn(CC2CCCCO2)nn1` (stereo not shown) [Compound I-495], the inhibition at 10 µM fell in the range of 25 to 50%.

Regarding `Cc1cc(N2CC3(CCN(c4ccccn4)CC3)C2)ccc1-c1cn(CC2CCCCO2)nn1` (stereo not shown) [Compound I-567], the inhibition at 10 µM lay in the range of 50 to 75% and the concentration for half-maximal inhibition (IC50) is 1000 to 3000 nM.

`CN(c1ccc(C#N)cc1)c1cn(CC2OCC(C)(C)CO2)nn1` [Compound I-793, 4-((1-((5,5-dimethyl-1,3-dioxan-2-yl)methyl)-1H-1,2,3-triazol-4-yl)(methyl)amino)benzonitrile] had an inhibition at 2 µM of over 75%.

Compound `Cc1cc(C#CC2CC2)ccc1-n1nc(CC2CCCCO2)oc1=O` (stereo not shown) [Compound I-12] came in with an inhibition at 10 µM of 25 to 50%.

Regarding `COCC#Cc1cnc(-c2cn(CC3OCC(C)(C)CO3)nn2)c(OCC(F)(F)F)c1` [Compound I-847], the inhibition at 10 µM is at most 25%.

`C(#CC1CC1)c1ccc(-n2cc(CC3CCOCC3)nn2)cc1` [Compound I-294] had an inhibition at 25 µM of at most 25%.

In the case of `Cc1cc(N2CC(C)(CO)C2)ccc1-c1cn(CC2OCC(C)(C)CO2)nn1` [Compound I-614], the inhibition at 10 µM was 50 to 75%.

`Cc1cc(N2CC3(CCN(C)C3)C2)ccc1-c1cn(CC2CCCCO2)nn1` (stereo not shown) [Compound I-168] showed an inhibition at 10 µM of at most 25%.

`Cc1cc(C#CC2CC2)ccc1-c1cn(CC2OCCCC2(C)C)nn1` (stereo not shown) [Compound I-522, 4-(4-(cyclopropylethynyl)-2-methylphenyl)-1-((3,3-dimethyltetrahydro-2H-pyran-2-yl)methyl)-1H-1,2,3-triazole] gave an inhibition at 10 µM of 50 to 75%.

The compound `CN(CC#Cc1cnc(-c2cn(CC3OCC(C)(C)CO3)nn2)c(OC2CC2)c1)C1CC1` [Compound I-858] yielded an inhibition at 2 µM of over 75%.

In turn, `Cc1cc(N2CCN(Cc3ccccn3)CC2)ccc1-c1cncn1C[C@H]1CCCCO1` [Compound I-672] yielded an inhibition at 10 µM of at most 25%.

For the compound `Cc1cc(C#CC2CC2)ccc1-c1cn(CC2CC(F)(F)CCO2)nn1` (stereo not shown) [Compound I-497], the inhibition at 10 µM fell in the range of 25 to 50%.

Regarding `COC(Cc1cc(C#CC2CC2)ccc1C)c1cn(CC2OCC(C)(C)CO2)nn1` (stereo not shown) [Compound I-753], the inhibition at 10 µM was over 75%.

For `Cc1cc(NC(=O)CC2CC2)ccc1-c1cn(CC2CCCCO2)nn1` (stereo not shown) [Compound I-358], the inhibition at 2 µM was at most 25%.

Regarding `N#CCc1cc(C#CC2CC2)ccc1-c1cn(CC2CCCCO2)nn1` (stereo not shown) [Compound I-217], the inhibition at 10 µM was in the range of 25 to 50%.

`CN(c1cn(CC2OCC(C)(C)CO2)nn1)c1cc(C#N)ccc1Cl` [Compound I-803] returned an inhibition at 10 µM of over 75%.

`CCc1ccc(C#CC2CC2)cc1-n1nc(CC2CCCCO2)oc1=O` (stereo not shown) [Compound I-20] returned an inhibition at 10 µM of over 75%.

On to `Cc1cc(N2CC(C)(C)C2)c(C#CC2CC2)cc1-c1cn(C[C@H]2CCCCO2)nn1` [Compound I-435], for which the inhibition at 10 µM is at most 25%.

The compound `Cc1cc(N2CC(Nc3cnn(C)c3)C2)ccc1-c1cn(CC2CCCCO2)nn1` (stereo not shown) [Compound I-541] displayed an inhibition at 10 µM of 25 to 50%.

The compound `CN(C)c1cc(C#CC(C)(C)O)ccc1-c1cn(CC2OCC(C)(C)CO2)nn1` [Compound I-719] came in with an inhibition at 10 µM of over 75% and a 50% inhibitory concentration (IC50) of 1000 to 3000 nM.

Regarding `Cc1cc(C#CC2CC2)ccc1-c1cn(Cc2ccccn2)nn1` [Compound I-312], the inhibition at 10 µM was in the range of 25 to 50%.

Compound `Cc1ccc(C#CC2CC2)cc1Cc1cn(CC2COc3ncccc3O2)nn1` (stereo not shown) [Compound I-552] yielded an inhibition at 2 µM of 25 to 50%.

Consider `COCC1(C)CN(c2ccc(-c3cn(CC4OCC(C)(C)CO4)nn3)c(N(C)C)c2)C1` [Compound I-706], for which the inhibition at 10 µM was over 75% and the IC50 was 300 to 1000 nM.

In turn, `O=c1oc(CC2CCCCO2)nn1Cc1cccc(C#CC2CC2)c1` (stereo not shown) [Compound I-18, 3-(3-(cyclopropylethynyl)benzyl)-5-((tetrahydro-2H-pyran-2-yl)methyl)-1,3,4-oxadiazol-2(3H)-one] registered an inhibition at 10 µM of 50 to 75%.

In turn, `CC(c1ccc(C#CC2CC2)cc1)c1cn(CC2CCCCO2)nn1` (stereo not shown) [Compound I-313] yielded an inhibition at 10 µM of 50 to 75%.

`CC(=O)c1ccc(C)c(N(C)c2cn(CC3OCC(C)(C)CO3)nn2)c1` [Compound I-825]: the inhibition at 2 µM was over 75%.

Consider `Cc1cc(N2CCN(Cc3ccccn3)CC2)ccc1-c1cn(CC2OCC(F)(F)CO2)nn1` [Compound I-615], for which the inhibition at 10 µM lay in the range of 50 to 75%.

For `Cc1cc(N2CCCC(O)C2)ccc1-c1cn(CC2CCCCO2)nn1` (stereo not shown) [Compound I-450], the inhibition at 10 µM was 25 to 50%.

With `Cc1cc(N2CC(C)(O)C2)ccc1-c1cn(CC2CCCCO2)nn1` (stereo not shown) [Compound I-524], the inhibition at 10 µM was at most 25%.

As to `Cc1cc(C#CCNC(=O)OC(C)C)ccc1-c1cn(CC2CCCCO2)nn1` (stereo not shown) [Compound I-616], the inhibition at 10 µM is over 75% and the IC50 was over 3000 nM.

`Cc1cc(C#CCO)cnc1-c1cn(C[C@H]2CCCCO2)nn1` [Compound I-272] gave an inhibition at 10 µM of 50 to 75%.

`C(#CC1CC1)c1cccc(Cc2cn(CC3CCCCO3)nn2)c1` (stereo not shown) [Compound I-301] had an inhibition at 10 µM of 50 to 75%.

For the compound `Cc1cc(C#CC2CC2)ccc1-c1nn(C[C@H]2CCCCO2)nc1C` [Compound I-345], the inhibition at 10 µM was at most 25%.

On to `CC1(C)COC(Cn2cc(-c3c(Cl)cc(C#CC4CC4)c[n+]3[O-])nn2)OC1` [Compound I-817], for which the inhibition at 10 µM was over 75%.

`Cc1cc(N2CC(C)(C)C2)cnc1-c1cn(CC2CCCCO2)cn1` (stereo not shown) [Compound I-609] had an inhibition at 10 µM of 50 to 75% and a concentration for half-maximal inhibition (IC50) of over 3000 nM.

`COC(c1cn(CC2CCCCO2)nn1)c1cc(C#CC2CC2)ccc1C(F)(F)F` (stereo not shown) [Compound I-655] had an inhibition at 10 µM of 50 to 75%.

The compound `COC(c1cn(CC2OCC(F)(F)CO2)nn1)c1cc(C#CC2CC2)c(F)cc1C` (stereo not shown) [Compound I-723] yielded an inhibition at 10 µM of over 75%.

Turning to `C(#CC1CC1)c1cccc(-c2nnn(CC3CCCCO3)n2)c1` (stereo not shown) [Compound I-4], the inhibition at 25 µM lay within 25 to 50% and the 50% inhibitory concentration (IC50) is at most 300 nM.

`Cc1cc(N2CCN([C@@H](C)c3ccccn3)CC2)ccc1-c1cn(CC2OCC(C)(C)CO2)nn1` [Compound I-716] yielded an inhibition at 10 µM of over 75% and a half-inhibitory concentration (IC50) of 300 to 1000 nM.

In the case of `CC1(C)COC(Cn2cncc2-c2ncc(C#CC3CC3)cc2OC2CC2)OC1` [Compound I-832], the inhibition at 10 µM was at most 25%.

`Cc1ccc(C#CC2CC2)cc1C(CC1CC1)c1cn(CC2OCC(C)(C)CO2)nn1` (stereo not shown) [Compound I-714] yielded an inhibition at 2 µM of over 75% and an IC50 of 1000 to 3000 nM.

Regarding `Cc1cc(N2CCCC23CNC3)ccc1-c1cn(CC2CCCCO2)nn1` (stereo not shown) [Compound I-150], the inhibition at 10 µM is at most 25%.
